Measured values: patent US20090285887A1, “Pharmaceutical Composition Comprising A Plurality of Mini-Tablets Comprising A Factor XA Inhibitor” (priority 2006, published 2009)

Assay: Preliminary pharmacokinetic analysis of absorption throughout the GI tract
Type: in vivo
Source text: In one aspect of the invention, the pharmaceutical composition enables the Factor Xa inhibitor to be absorbed throughout the GI tract, i.e. in the duodenum (proximal small intestine), ileum (distal small intestine) and cecum/colon. […] Accordingly, this comprises a further aspect of the invention.

## C[C@@H](C(=O)N1CCOCC1)N1CC[C@H](NS(=O)(=O)/C=C/c2ccc(Cl)s2)C1=O [Compound A, (E)-2-(5-chlorothien-2-yl)-N-{(3S)-1-[(1S)-1-methyl-2-morpholin-4-yl-2-oxoethyl]-2-oxopyrrolidin-3-yl}ethenesulfonamide]
  absorption throughout the GI tract: may be absorbed throughout the GI tract
